Experimental data from US7563805B2, “Tri-, tetra-substituted-3-aminopyrrolidine derivative” (Daiichi Pharmaceutical Co., Ltd., priority 2005, dated 2009).
Values after ≈ are worked out from the molar mass of the structure shown.

Key:
[1] = system: Mycobacterium tuberculosis (quinolone sensitive); assay: anti-Mycobacterium tuberculosis (quinolone sensitive) activity, MIC; assay type: cell-based
[2] = rat, in vivo, po
Experimental: The Comparative compound was also evaluated by the same procedure.
The test substance was orally administered to fasted rats (7 week old male Crj:CD IGS rats purchased from Charles River Laboratories Japan, Inc.) at a dose of 5 mg/kg.
Animals of absorption test group (3 animals per group) were sacrificed by bleeding under etherization at 0.25, 0.5, 1, 2, 4, and 8 hours after the drug administration, and blood, lever, kidney, and lung were collected. The blood was centrifuged (3000 rpm×15 minutes, 4° C.) after coagulation to collect serum. Tissue was homogenized after adding 3 to 5 mL of 0.1 mol/l phosphate buffer (pH 7.0), and the supernatant was collected from the homogenate (3000 rpm×15 minutes, 4° C.).
Animals of excretion test group (3 animals per group) were placed in a metabolic cage, and the urine of 0 to 4 hours and 4 to 24 hours after the administration was collected in a water-cooled container. Simultaneously with the collection of the urine, the cage was also washed with about 15 mL of 0.1 mol/l phosphate buffer (pH 7.0) to collect the urine attached to the cage. For evaluation of conjugates such as glucuronide, the collected sample was also aliquoted and hydrolyzed with an equal amount of 1 mol/l aqueous solution of sodium hydroxide, and the hydrolysate was neutralized with 0.5 mol/l hydrochloric acid and measured for its concentration. The concentration was measured by LC-MS/MS method.
Pharmacokinetic parameters of the each drug in rat were calculated by from the time course of the average concentration by using pharmacokinetic analysis software PSAG-CP (AS Medica Inc.) in a manner not dependent on the model animal.

P. vulgaris, 08601 = assay: antibacterial activity (MIC), standard method of Japanese Society of Chemotherapy; conditions: Proteus vulgaris, 08601, P. vulgaris
S. marscecens, 10100 = assay: as above
[3] = system: S. aureus, 87037 (LVFX-resistant MRSA); assay: as above; conditions: Staphylococcus aureus, MRSA, S. aureus, 87037 (LVFX-resistant MRSA)
[4] = potential convulsant activity upon intracisternal administration, with and without 4-biphenyl acetic acid (BPAA); conditions: 5 μg/5 μL/mouse i. cist
Experimental: The potential convulsant activity upon intracisternal administration to mouse was also evaluated for the concomitant and administration with 4-biphenyl acetic acid (BPAA: an active metabolite of fenbufen) and in the absence of such concomitant administration. The evaluation was conducted by using 4 week old male Slc:ddY mice (6 animals per group) and intracisternally administering the test substance at a dose of 5 μg/5 μL/mouse (solvent, 0.5% lactic acid). Monitoring of the animals for the convulsion and death was started immediately after the administration and continued to 30 minutes after the administration. When used concomitantly with the BPAA, BPAA was suspended in 5% CMC, and 400 mg/kg was orally administered at a solution amount of 10 mL/kg, and the test substance was intracisternally administered 30 minutes after the BPAA.

[5] = (with BPAA 400 mg/kg oral, 30 minutes before)
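Wherever Excretion rate in urine, times higher than Comparative compound 1 is given: fasted 7-week-old rats, three per group, tissue sampled up to 8 h post-dose and urine collected over 0–24 h, with conjugates measured after alkaline hydrolysis, concentrations by LC-MS/MS.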
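Wherever Recovery (%) in urine in relation to the amount administered, Recovery (%) including conjugate is given: fasted 7-week-old rats, three per group, tissue sampled up to 8 h post-dose and urine collected over 0–24 h, with conjugates measured after alkaline hydrolysis, concentrations by LC-MS/MS.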
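Wherever Tissue AUC0-8 h, Kidney is given: fasted 7-week-old rats, three per group, tissue sampled up to 8 h post-dose and urine collected over 0–24 h, with conjugates measured after alkaline hydrolysis, concentrations by LC-MS/MS.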
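Wherever serum concentration and tissue concentration, times higher than Comparative compound 1 is given: fasted 7-week-old rats, three per group, tissue sampled up to 8 h post-dose and urine collected over 0–24 h, with conjugates measured after alkaline hydrolysis, concentrations by LC-MS/MS.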

Compound `COc1c(N2CC(C)(N)C3(CC3)C2)c(F)cc2c(=O)c(C(=O)O)cn([C@@H]3C[C@@H]3F)c12` (stereo partly drawn) [Example 9, 7-(7-Amino-7-methyl-5-azaspiro[2.4]heptan-5-yl)-6-fluoro-1-[(1R,2S)-2-fluorocyclopropyl]-8-methoxy-1,4-dihydro-4-oxoquinoline-3-carboxylic acid] has an MIC ([1]; strain 1 (QR-3)) of 0.125 µg/mL (≈ 0.298 µM), an MIC ([1]; strain 2 (QR-6)) of 0.5 µg/mL (≈ 1.19 µM) and an MIC ([1]; strain 3 (QR-1)) of 0.25 µg/mL (≈ 0.596 µM). It also gave an MIC ([1]; strain 4 (QR-9)) of 0.25 µg/mL (≈ 0.596 µM), an MIC ([1]; strain MDR 1) of 0.125 µg/mL (≈ 0.298 µM) and an MIC ([1]; strain MDR 3) of 0.125 µg/mL (≈ 0.298 µM). It also gave an MIC ([1]; strain MDR 4) of 0.25 µg/mL (≈ 0.596 µM), an MIC ([1]; strain MDR 5) of 0.5 µg/mL (≈ 1.19 µM) and an MIC ([1]; strain MDR 7) of 0.125 µg/mL (≈ 0.298 µM). The MIC ([1]; strain MDR 9) was 0.125 µg/mL (≈ 0.298 µM), the MIC ([1]; strain MDR 12) was 0.125 µg/mL (≈ 0.298 µM) and the MIC ([1]; strain S 1) was 1 µg/mL (≈ 2.38 µM). The “Excretion rate in urine, times higher than Comparative compound 1” value ([2]; male, Crj:CD IGS) was “about 1.5 times”, the “serum concentration and tissue concentration, times higher than Comparative compound 1” value ([2]; male, Crj:CD IGS) was “about 2 times” and the “Recovery (%) in urine in relation to the amount administered, Recovery (%) including conjugate” value ([2]; male, Crj:CD IGS, 5 mg/kg) was 32.0%. For the same compound, the “Tissue AUC0-8 h, Kidney” value ([2]; male, Crj:CD IGS, 5 mg/kg) was 27800 ng·h/mL, the “Tissue AUC0-8 h, Liver” value ([2]; male, Crj:CD IGS, 5 mg/kg) was 32100 ng·h/mL and the “Tissue AUC0-8 h, Lung” value ([2]; male, Crj:CD IGS, 5 mg/kg) was 13700 ng·h/mL. The “Tissue Cmax, Kidney” value ([2]; male, Crj:CD IGS, 5 mg/kg) was 9.88 µg/g, the “Tissue Cmax, Liver” value ([2]; male, Crj:CD IGS, 5 mg/kg) was 13.7 µg/g and the “Tissue Cmax, Lung” value ([2]; male, Crj:CD IGS, 5 mg/kg) was 3.86 µg/g. The “AUC value, times higher than Comparative compound 1” value [2] was 1.5-2 times, the MIC (P. vulgaris, 08601) was 0.025 µg/mL (≈ 0.0596 µM) and the MIC (S. marscecens, 10100) was 0.1 µg/mL (≈ 0.238 µM). The MIC [3] was 0.78 µg/mL (≈ 1.86 µM), the “Number of animals which showed convulsion” value [4, 5] was 0/6 (0/6) and the “number of dead animals” value [4, 5] was 0/6 (0/6). The “Number of animals which showed convulsion” value ([4]; (without BPAA)) was 0/6 (0/6) and the “number of dead animals” value ([4]; (without BPAA)) was 0/6 (0/6).
